Experimental findings from PubChem BioAssay AID1845204 (Molecular Pharmacology Branch, DTP, NCI, 2023) are described below.

SMILES strings stand for the structures. Values joined by “and” are separate entries in the source; they are usually repeats but may differ in a detail not shown here. Equal values may be shown once.

In the assay the test system is HSSY-II tumor spheroid viability. Briefly: Anticancer human tumor HSSY-II cell line growth inhibition.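 As to all read-outs here: spheroids exposed to compounds for seven days before reading.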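 As to viability, T/C: percent of DMSO vehicle control viability so 100% = untreated level.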 As to conditions: spheroids with HUVEC and MSC; for viability, T/C: stronger effect = lower value. A digest of the protocol: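 Single agents and combinations were tested on spheroids built from tumor cells plus HUVEC and hMSC, at half-log dilutions starting at or near clinical Cmax, else 10 microM; final DMSO 0.25% (v/v).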

In general, IC50 refers to the point on the concentration scale where inhibition reaches its midpoint. The term viability, T/C denotes the result in the treated group divided by that in the control group, in per cent. With `O=C(c1cc(Cc2n[nH]c(=O)c3ccccc23)ccc1F)N1CCN(C(=O)C2CC2)CC1` + COc1cc2c(cc1O)CCNC21CSC2c3c(OC(C)=O)c(C)c4c(c3C(COC1=O)N1C(O)C3Cc5cc(C)c(OC)c(O)c5C(C21)N3C)OCO4, the IC50 was 3000 nM (curve of first compound, second compound 30 pM); 875 nM (curve of first compound, second compound 94.9 pM); under 94.9 nM (curve of first compound, second compound 0.0003 µM); under 94.9 nM (curve of first compound, second compound 0.000949 µM); under 94.9 nM (curve of first compound, second compound 0.003 µM). The viability, T/C reads like this: (second compound 30 pM, first compound 0.0949 µM) 91.1%; (second compound 30 pM, first compound 0.3 µM) 85.6%; (second compound 30 pM, first compound 0.949 µM) 81.6%; (second compound 30 pM, first compound 3 µM) 50.9%; (second compound 30 pM, first compound 9.49 µM) 12.3%; (second compound 30 pM, first compound 30 µM) 11.1%. The viability, T/C is, setting by setting: (second compound 94.9 pM, first compound 0.0949 µM) 73%; (second compound 94.9 pM, first compound 0.3 µM) 65.4%; (second compound 94.9 pM, first compound 0.949 µM) 49.7%; (second compound 94.9 pM, first compound 3 µM) 20.2%; (second compound 94.9 pM, first compound 9.49 µM) 9.72%; (second compound 94.9 pM, first compound 30 µM) 8.42%. Further, the viability, T/C reads like this: (second compound 0.0003 µM, first compound 0.0949 µM) 11.3%; (second compound 0.0003 µM, first compound 0.3 µM) 10.6%; (second compound 0.0003 µM, first compound 0.949 µM) 8.99%; (second compound 0.0003 µM, first compound 3 µM) 8.1%; (second compound 0.0003 µM, first compound 9.49 µM) 7.62%; (second compound 0.0003 µM, first compound 30 µM) 5.94%. For the same molecule, the viability, T/C (second compound 0.000949 µM, first compound 0.0949 µM) was 2.49%; the viability, T/C (second compound 0.000949 µM, first compound 0.3 µM) was 1.82%; the viability, T/C (second compound 0.000949 µM, first compound 0.949 µM) is 2.22%; the viability, T/C (second compound 0.000949 µM, first compound 3 µM) was 1.13%; the viability, T/C (second compound 0.000949 µM, first compound 9.49 µM) is 0.5%; the viability, T/C (second compound 0.000949 µM, first compound 30 µM) was 0.21%. For the same molecule, the viability, T/C (second compound 0.003 µM, first compound 0.0949 µM) is 0.29%; the viability, T/C (second compound 0.003 µM, first compound 0.3 µM) was 0.34%; the viability, T/C (second compound 0.003 µM, first compound 0.949 µM) was 0.26%; the viability, T/C (second compound 0.003 µM, first compound 3 µM) is 0.22%; the viability, T/C (second compound 0.003 µM, first compound 9.49 µM) is 0.24%; the viability, T/C (second compound 0.003 µM, first compound 30 µM) was 0.36%.

For the molecule `CC(C)n1c(=O)n(C)c2cnc3cc(F)c(-c4ccc(OCCCN5CCCCC5)nc4)cc3c21`, the viability, T/C reads like this: (compound 0.0316 µM) 139% and 106% and 97.2%; (compound 0.1 µM) 129% and 102% and 101%; (compound 0.316 µM) 118% and 97.2% and 96.5%; (compound 1 µM) 126% and 86.8% and 85.9%; (compound 3.16 µM) 113% and 76.4% and 76.1%; (compound 10 µM) 53.6% and 35.9% and 32.6%. Further, under “curve of compound”, the IC50 was > 10000 nM and 6620 nM and 6220 nM.

In the case of `Cn1nnc2c(C(N)=O)ncn2c1=O`, the viability, T/C is 100% [middle of 10 runs] (compound 1 µM); 104% [middle of 10 runs] (compound 3.16 µM); 102% [middle of 10 runs] (compound 10 µM); 103% [middle of 10 runs] (compound 31.6 µM); 93.4% [middle of 10 runs] (compound 100 µM). Further, the IC50 (compound alone, run of 12/02/2019) was over 100000 nM.

On to `Cn1ncnc1[C@H]1c2n[nH]c(=O)c3cc(F)cc(c23)N[C@@H]1c1ccc(F)cc1`, for which the viability, T/C is 76.5% and 87.8% and 78.8% (compound 0.00949 µM); 64.8% and 81.5% and 64.3% (compound 0.03 µM); 40.7% and 58.8% and 46.4% (compound 0.0949 µM); 15.3% and 25.6% and 20.6% (compound 0.3 µM); 6.4% and 9.46% and 9.61% (compound 0.949 µM); 4.87% and 8.07% and 6.62% (compound 3 µM). The IC50 (curve of compound) was 60.5 nM and 129 nM and 70.4 nM.
